In US20170342451A1, “BIOSYNTHESIS OF PACLITAXEL INTERMEDIATE” (Board of Trustees of Michigan State University, priority 2012, published 2017):

Tests used:
Cinnamate-CL = settings: cited from earlier work
bacterial CoA Ligases = settings: literature range; cited from earlier work
Benzoate-CL = settings: cited from earlier work
Propionyl-CL = Propionyl-CL (Salmonella typhimurium, UniProt P55912); settings: cited from earlier work
4-Chlorobenzoate-CL = settings: cited from earlier work
TycA = biological target: T1, TycA (Brevibacillus parabrevis, UniProt P09095); assay: CoA ligase reaction kinetics, TycA; format: biochemical, Brevibacillus brevis
T1 construct: this wild-type tycA cDNA encoding the A-, T-, and E-domains was subcloned into a pSU18 vector; made in house; host or cells: Escherichia coli BL21(DE3)
T1 sequence (P09095 with tags, fused parts or gaps): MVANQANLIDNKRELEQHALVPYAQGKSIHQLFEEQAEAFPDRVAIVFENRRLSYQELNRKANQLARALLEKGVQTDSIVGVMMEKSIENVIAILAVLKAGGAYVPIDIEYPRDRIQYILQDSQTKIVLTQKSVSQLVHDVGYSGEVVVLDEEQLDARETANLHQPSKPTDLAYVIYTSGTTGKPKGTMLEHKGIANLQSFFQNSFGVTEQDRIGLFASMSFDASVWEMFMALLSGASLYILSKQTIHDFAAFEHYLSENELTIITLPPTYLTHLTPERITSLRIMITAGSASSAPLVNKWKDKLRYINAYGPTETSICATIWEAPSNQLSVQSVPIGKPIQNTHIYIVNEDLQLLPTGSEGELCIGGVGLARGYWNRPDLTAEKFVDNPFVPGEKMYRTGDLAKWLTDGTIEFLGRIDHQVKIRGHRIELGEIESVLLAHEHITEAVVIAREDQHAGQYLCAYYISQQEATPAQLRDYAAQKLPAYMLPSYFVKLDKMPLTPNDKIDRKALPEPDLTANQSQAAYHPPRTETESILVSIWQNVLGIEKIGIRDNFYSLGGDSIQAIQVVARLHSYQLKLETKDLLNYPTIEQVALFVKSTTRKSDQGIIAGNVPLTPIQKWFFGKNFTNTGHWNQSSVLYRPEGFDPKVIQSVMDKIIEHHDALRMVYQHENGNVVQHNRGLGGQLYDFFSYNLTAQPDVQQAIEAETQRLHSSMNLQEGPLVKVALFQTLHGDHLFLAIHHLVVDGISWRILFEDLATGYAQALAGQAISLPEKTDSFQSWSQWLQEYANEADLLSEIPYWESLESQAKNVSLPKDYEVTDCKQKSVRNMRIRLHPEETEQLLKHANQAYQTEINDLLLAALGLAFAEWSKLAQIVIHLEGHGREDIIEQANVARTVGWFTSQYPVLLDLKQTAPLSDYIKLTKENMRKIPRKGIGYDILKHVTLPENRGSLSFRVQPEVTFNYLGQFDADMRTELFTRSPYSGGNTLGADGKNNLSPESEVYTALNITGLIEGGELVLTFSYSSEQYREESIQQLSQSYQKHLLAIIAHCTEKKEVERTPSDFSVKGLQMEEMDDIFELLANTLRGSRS
Protocol: Under steady-state conditions, (S)-α-phenylalanine, (R)-β-phenylalanine, and (2R,3S)-phenylisoserine at 5, 10, 20, 40, 80, 160, 250, 500, 1000 and 2000 μM were separately incubated with TycA or TycA-S563A (20 μg) for 30 min. At the end of each reaction, and prior to mass spectrometry analysis, acetyl CoA (1 μM) was added as the internal standard to each sample to correct for variations of the analyte. The products of the enzyme-catalyzed reaction were quantified by a liquid chromatography multiple reaction monitoring (LC-ESI-MRM) mass spectrometry technique (Anderson & Hunter, Mol. Cell. Proteomics 5: 573-588 (2006)) on the Quattro-Premier Electro-Spray Mass Spectrometer coupled with Acquity® UPLC system fitted with a C18 Ascentis Express column (2.5×50 mm, 2.7 μm) at 30° C. An aliquot (5 μL) of each sample was loaded onto the column and the analytes were eluted with a solvent gradient of acetonitrile (Solvent A) in 0.05% triethylamine in distilled water (Solvent B). Elution was held at 2.5% Solvent A for 3.17 min, increased to 100% Solvent A over 5 sec with a 2-min hold, and then returned to 2.5% Solvent A over 5 sec with a 50-sec hold. The flow rate employed was 0.4 mL/min. The effluent from the chromatography column was directed to the mass spectrometer where the first quadrupole mass analyzer (in negative ion mode) was set to select for the molecular ion of a biosynthesized acyl CoA product. The selected ion was then directed to a collision gas chamber where the collision energy was optimized to maximize the abundance of a single signature fragment ion (m/z 408, characteristic of acyl CoA thioesters) resolved in the second quadrupole mass analyzer by the MRM method. The peak area under the curve of fragment ion m/z 408 for each biosynthetic phenylpropionyl CoA thioester was converted to concentration by comparing the peak area of the same ion produced by authentic CoA (at 0.05, 0.1, 0.2, 0.4, 0.8, 1.6, 3.2, 6.4, 12.5, 25, 50, 100 μM) using linear regression analysis.
The KM values of TycA and TycA-S563A for CoA were assessed by incubating each enzyme separately with (S)-α-phenylalanine (1 mM), MgCl2 (3 mM), ATP (1 mM), and CoA at 0.05, 0.1, 0.2, 0.4, 0.8, 1.6, 3.2, 6.4, 12.8 and 25.6 mM at 31° C. for 20 min. At the end of each reaction and prior to mass spectrometry analysis, acetyl CoA (1 μM) was added as the internal standard to each sample to correct for variations of the analyte. The products of the enzyme-catalyzed reaction were quantified by LC-ESI-MRM, and the monitored fragment ion (m/z 408) derived from the CoA moiety of the thioester analytes in the effluent was quantified identically to the procedure described earlier herein.

Phenylacetate-CL = settings: cited from earlier work
[1] = tested on: mutation of phenylacetate CoA Ligase; settings: mutated enzyme; reaction to make β-Phenylpropanyl CoA; reduced from low mM; cited from earlier work
[2] = tested on: CC(C)(COP(=O)(O)OP(=O)(O)OC[C@H]1O[C@@H](n2cnc3c(N)ncnc32)[C@H](O)[C@@H]1OP(=O)(O)O)[C@@H](O)C(=O)NCCC(=O)NCCS; assay: purified protein, by the assay type; settings: other: TycA-S563A, CoA 1 mM, ATP 1 mM, MgCl2 3 mM, 31° C., CoA with (S)-α-Phe as cosubstrate, pH 8.0
Protocol: At the end of each reaction, and prior to mass spectrometry analysis, acetyl CoA (1 μM) was added as the internal standard to each sample to correct for variations of the analyte. The products of the enzyme-catalyzed reaction were quantified by a liquid chromatography multiple reaction monitoring (LC-ESI-MRM) mass spectrometry technique (Anderson & Hunter, Mol. Cell. Proteomics 5: 573-588 (2006)) on the Quattro-Premier Electro-Spray Mass Spectrometer coupled with Acquity® UPLC system fitted with a C18 Ascentis Express column (2.5×50 mm, 2.7 μm) at 30° C. An aliquot (5 μL) of each sample was loaded onto the column and the analytes were eluted with a solvent gradient of acetonitrile (Solvent A) in 0.05% triethylamine in distilled water (Solvent B). Elution was held at 2.5% Solvent A for 3.17 min, increased to 100% Solvent A over 5 sec with a 2-min hold, and then returned to 2.5% Solvent A over 5 sec with a 50-sec hold. The flow rate employed was 0.4 mL/min. The effluent from the chromatography column was directed to the mass spectrometer where the first quadrupole mass analyzer (in negative ion mode) was set to select for the molecular ion of a biosynthesized acyl CoA product. The selected ion was then directed to a collision gas chamber where the collision energy was optimized to maximize the abundance of a single signature fragment ion (m/z 408, characteristic of acyl CoA thioesters) resolved in the second quadrupole mass analyzer by the MRM method. The peak area under the curve of fragment ion m/z 408 for each biosynthetic phenylpropionyl CoA thioester was converted to concentration by comparing the peak area of the same ion produced by authentic CoA (at 0.05, 0.1, 0.2, 0.4, 0.8, 1.6, 3.2, 6.4, 12.5, 25, 50, 100 μM) using linear regression analysis. The initial velocity (vo) of (S)-α-phenylalanyl-CoA, (R)-β-phenylalanyl-CoA and (2R,3S)-phenylisoserinyl-CoA made in separate assays was plotted against substrate concentration and fit by non-linear regression to the Michaelis-Menten equation (R^2 was typically between 0.90 and 0.99) to calculate the Michaelis parameters (KM and kcat).
The KM values of TycA and TycA-S563A for CoA were assessed by incubating each enzyme separately with (S)-α-phenylalanine (1 mM), MgCl2 (3 mM), ATP (1 mM), and CoA at 0.05, 0.1, 0.2, 0.4, 0.8, 1.6, 3.2, 6.4, 12.8 and 25.6 mM at 31° C. for 20 min. At the end of each reaction and prior to mass spectrometry analysis, acetyl CoA (1 μM) was added as the internal standard to each sample to correct for variations of the analyte. The products of the enzyme-catalyzed reaction were quantified by LC-ESI-MRM, and the monitored fragment ion (m/z 408) derived from the CoA moiety of the thioester analytes in the effluent was quantified identically to the procedure described earlier herein. […]
N[C@H](CC(=O)O)c1ccccc1 = assay: purified protein, by the assay type
[3] = tested on: C[C@@](N)(C(=O)O)c1ccccc1; assay: purified protein, by the assay type
[4] = substrate: CC(=O)NCCS; assay: N-acetylcysteamine ligase reaction kinetics, TycA; format: biochemical, Brevibacillus brevis; settings: other: TycA with NAC; NAC with (S)-α-Phe as cosubstrate
Protocol: The reactions were quenched by acidification to a pH of about 2 (10% formic acid in distilled water). […] The samples were analyzed on a Quattro-Premier Electro-Spray Mass Spectrometer coupled with Acquity® UPLC system fitted with a C18 Ascentis Express column (2.5×50 mm, 2.7 μm) at 30° C. An aliquot (5 μL) of each sample was loaded onto the column and the analytes were eluted with a solvent gradient of (Solvent A) in 0.05% triethylamine in distilled water (Solvent B) (held at 2.5% Solvent A for 3.17 mM, increased to 100% A over 5 sec with a 2-min hold, and then returned to 2.5% Solvent A over 5 sec with a 50-sec hold) at a flow rate of 0.4 mL/min. In brief, the effluent from the chromatography column was directed to the Quattro Premier ESI mass spectrometer, in MRM scan mode, to quantify the biosynthetic acyl SNAC products. […] A standard curve was used to convert the peak area under the curve of the monitored fragment ion to concentration for each biosynthetic phenylpropionyl SNAC.
Authentic (5)-α-phenylalanyl, (R/S)-β-phenylalanyl- and (2R,3S)-phenylisoserinyl-SNAC were used to construct the standard curves by correlating the peak area under the curve of the monitored ion to concentration of the standard (at 0.16, 0.32, 0.64, 1.3, 2.5, 5, 10, 20, 40, 80, 160 and 320 μM) using linear regression analysis. […]

[5] = other: TycA-S563A with NAC, NAC with (S)-α-Phe as cosubstrate
[6] = other: TycA-S563A, CoA 1 mM, ATP 1 mM, MgCl2 3 mM, 31° C., CoA with (S)-α-Phe as cosubstrate, pH 8.0

Propionyl-CL, sequence (P55912 whole entry): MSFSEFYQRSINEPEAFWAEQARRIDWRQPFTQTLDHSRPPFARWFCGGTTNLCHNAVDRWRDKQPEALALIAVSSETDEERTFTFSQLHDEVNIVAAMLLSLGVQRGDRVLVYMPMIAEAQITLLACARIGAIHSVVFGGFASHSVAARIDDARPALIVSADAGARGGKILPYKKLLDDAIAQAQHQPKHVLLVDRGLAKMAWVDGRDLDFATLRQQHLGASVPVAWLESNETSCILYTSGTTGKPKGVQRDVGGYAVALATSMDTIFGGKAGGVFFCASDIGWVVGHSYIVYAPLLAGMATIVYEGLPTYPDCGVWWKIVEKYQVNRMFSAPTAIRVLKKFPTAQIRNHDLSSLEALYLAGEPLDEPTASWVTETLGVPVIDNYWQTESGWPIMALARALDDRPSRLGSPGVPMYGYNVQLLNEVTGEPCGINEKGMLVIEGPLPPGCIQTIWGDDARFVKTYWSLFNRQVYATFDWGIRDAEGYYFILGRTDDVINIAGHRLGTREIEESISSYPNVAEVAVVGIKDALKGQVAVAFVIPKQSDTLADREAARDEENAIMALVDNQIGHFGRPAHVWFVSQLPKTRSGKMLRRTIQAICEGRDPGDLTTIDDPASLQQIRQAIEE

O=C(O)/C=C/c1ccccc1 [Cinnamate]
Km (Cinnamate-CL): 190 µM
kcat (Cinnamate-CL): 0.475 s⁻¹

CC(C)(COP(=O)(O)OP(=O)(O)OC[C@H]1O[C@@H](n2cnc3c(N)ncnc32)[C@H](O)[C@@H]1OP(=O)(O)O)[C@@H](O)C(=O)NCCC(=O)NCCS [CoA]
Km (bacterial CoA Ligases): 100 to 940 µM
Km (Benzoate-CL): 100 µM
Km (Propionyl-CL): 215 µM
kcat (Propionyl-CL): 42 s⁻¹
Km (4-Chlorobenzoate-CL): 310 µM
kcat (4-Chlorobenzoate-CL): 9.3 s⁻¹
Km (TycA; TycA, CoA 1 mM, ATP 1 mM, MgCl2 3 mM, 31° C., CoA with (S)-α-Phe as cosubstrate): 1980 ± 175 µM
kcat^CoA (TycA; TycA, turnover with CoA at apparent saturation, CoA with (S)-α-Phe as cosubstrate): 0.0125 ± 0.00083 s⁻¹
higher KM of TycA compared to that of TycA-S563A (TycA; dilution series of CoA with 1 mM (S)-α-Phe): ~2.5 fold
Km (Phenylacetate-CL): 940 µM

O=C(O)c1ccccc1 [benzoate]
Km (Benzoate-CL): 11 µM
kcat (Benzoate-CL): 26,000 min^−1

CCC(=O)O [propionate]
Km (Propionyl-CL): 20 µM
kcat (Propionyl-CL): 33 s⁻¹

NC(CC(=O)O)c1ccccc1 (stereo not drawn) [β-Phe]
Km [1]: 0.068 mM

TycA-S563A (Brevibacillus parabrevis; S563A)
Km [2]: 804 ± 26 µM
kcat [2]: 0.015 ± 0.0013 s⁻¹
Km (N[C@H](CC(=O)O)c1ccccc1; [5]): 58.9 ± 6.4 µM
kcat (N[C@H](CC(=O)O)c1ccccc1; [5]): 0.0004 ± 1.67e-05 s⁻¹
Km (N[C@H](CC(=O)O)c1ccccc1; [6]): 62.3 ± 1.0 µM
Km [3, 5]: 37.8 ± 1.6 µM
kcat [3, 5]: 0.003333 ± 3.33e-05 s⁻¹
Km [3, 6]: 33.9 ± 4.0 µM

B1: TycA (Brevibacillus parabrevis) (protein)
chain: MVANQANLIDNKRELEQHALVPYAQGKSIHQLFEEQAEAFPDRVAIVFENRRLSYQELNRKANQLARALLEKGVQTDSIVGVMMEKSIENVIAILAVLKAGGAYVPIDIEYPRDRIQYILQDSQTKIVLTQKSVSQLVHDVGYSGEVVVLDEEQLDARETANLHQPSKPTDLAYVIYTSGTTGKPKGTMLEHKGIANLQSFFQNSFGVTEQDRIGLFASMSFDASVWEMFMALLSGASLYILSKQTIHDFAAFEHYLSENELTIITLPPTYLTHLTPERITSLRIMITAGSASSAPLVNKWKDKLRYINAYGPTETSICATIWEAPSNQLSVQSVPIGKPIQNTHIYIVNEDLQLLPTGSEGELCIGGVGLARGYWNRPDLTAEKFVDNPFVPGEKMYRTGDLAKWLTDGTIEFLGRIDHQVKIRGHRIELGEIESVLLAHEHITEAVVIAREDQHAGQYLCAYYISQQEATPAQLRDYAAQKLPAYMLPSYFVKLDKMPLTPNDKIDRKALPEPDLTANQSQAAYHPPRTETESILVSIWQNVLGIEKIGIRDNFYSLGGDSIQAIQVVARLHSYQLKLETKDLLNYPTIEQVALFVKSTTRKSDQGIIAGNVPLTPIQKWFFGKNFTNTGHWNQSSVLYRPEGFDPKVIQSVMDKIIEHHDALRMVYQHENGNVVQHNRGLGGQLYDFFSYNLTAQPDVQQAIEAETQRLHSSMNLQEGPLVKVALFQTLHGDHLFLAIHHLVVDGISWRILFEDLATGYAQALAGQAISLPEKTDSFQSWSQWLQEYANEADLLSEIPYWESLESQAKNVSLPKDYEVTDCKQKSVRNMRIRLHPEETEQLLKHANQAYQTEINDLLLAALGLAFAEWSKLAQIVIHLEGHGREDIIEQANVARTVGWFTSQYPVLLDLKQTAPLSDYIKLTKENMRKIPRKGIGYDILKHVTLPENRGSLSFRVQPEVTFNYLGQFDADMRTELFTRSPYSGGNTLGADGKNNLSPESEVYTALNITGLIEGGELVLTFSYSSEQYREESIQQLSQSYQKHLLAIIAHCTEKKEVERTPSDFSVKGLQMEEMDDIFELLANTLRGSRS
notes: this wild-type tycA cDNA encoding the A-, T-, and E-domains was subcloned into a pSU18 vector; made in house; host or cells: Escherichia coli BL21(DE3)
Km [4]: 153 ± 22 µM
kcat [4]: 0.0015 ± 0.000167 s⁻¹
